Data as given in ChEMBL document CHEMBL4831508, “Anti-inflammatory Cassane-Type Diterpenoids from the Seed Kernels of Caesalpinia sinensis” (J Nat Prod, 2021).

How the values were obtained:
RAW264.7 [1] = test: Antiinflammatory activity in mouse RAW264.7 cells assessed as inhibition of LPS-induced NO production preincubated for 3 hrs followed by LPS-stimulation and measured after 24 hrs by Griess reagent based assay; format: functional, cell-based
RAW264.7 [2] = test: Cytotoxicity against mouse RAW264.7 cells assessed as cell viability measured after 24 hrs by CCK8 assay; format: cell-based; settings: raw264.7, 24 h
RAW264.7 [3] = test: Antiinflammatory activity in mouse RAW264.7 cells assessed as inhibition of LPS-induced iNOSs protein expression preincubated for 3 hrs followed by LPS-stimulation and measured after 24 hrs by Western blot analysis; format: functional, cell-based; settings: dose 3-30 µM
RAW264.7 [4] = test: Antiinflammatory activity in mouse RAW264.7 cells assessed as inhibition of LPS-induced iNOS enzyme activity preincubated for 3 hrs followed by LPS-stimulation and measured after 24 hrs by fluorescence plate reader assay; format: functional, cell-based; settings: dose 3-30 µM

C[C@H]1C2=CC(=O)O[C@@H]2C[C@H]2[C@H]1C[C@@H](O)[C@H]1C(C)(C)CCC[C@]21C
IC50 (RAW264.7 [1]): 40.3 µM
Activity (RAW264.7 [2]): Non-Toxic

CC(=O)O[C@@H]1C[C@H]2[C@@H](C)C3=CC(=O)OC3=C[C@@H]2[C@@]2(C)CCCC(C)(C)[C@H]12
IC50 (RAW264.7 [1]): > 50 µM
Activity (RAW264.7 [2]): Non-Toxic

CC(=O)O[C@@H]1C[C@H]2[C@@H](C)C3=CC(=O)O[C@@H]3C[C@@H]2[C@@]2(C)CCCC(C)(C)[C@H]12
IC50 (RAW264.7 [1]): > 50 µM
Activity (RAW264.7 [2]): Non-Toxic

CO[C@@]12C[C@H]3[C@@H](C[C@@H](OC(C)=O)[C@H]4C(C)(C)CCC[C@]34C)[C@@H](C)C1=CC(=O)O2
IC50 (RAW264.7 [1]): > 50 µM
Activity (RAW264.7 [2]): Non-Toxic

C[C@H]1C2=CC(=O)O[C@@H]2C[C@H]2[C@H]1C[C@@H](O)[C@H]1[C@@](C)(CO)CCC[C@]21C
IC50 (RAW264.7 [1]): > 50 µM
Activity (RAW264.7 [2]): Non-Toxic

C[C@H]1C2=CC(=O)OC2=C[C@H]2[C@H]1C[C@@H](O)[C@H]1C(C)(C)CCC[C@]21C
IC50 (RAW264.7 [1]): 34.4 µM
Activity (RAW264.7 [2]): Non-Toxic

C[C@@H]1[C@@H]2C[C@@H](O)[C@H]3[C@](C)(CO)CCC[C@]3(C)[C@H]2C=C2NC(=O)C[C@@H]21
IC50 (RAW264.7 [1]): 21 µM
Activity (RAW264.7 [2]): Non-Toxic

CO[C@@]12C[C@H]3[C@@H](CC[C@H]4C(C)(C)CCC[C@]34C)[C@@H](C)C1=CC(=O)O2
IC50 (RAW264.7 [1]): > 50 µM
Activity (RAW264.7 [2]): Non-Toxic

CO[C@@]12C[C@H]3[C@@H](C[C@@H](O)[C@H]4[C@](C)(CO)CCC[C@]34C)[C@@H](C)C1=CC(=O)O2
IC50 (RAW264.7 [1]): > 50 µM
Activity (RAW264.7 [2]): Non-Toxic

CC(=O)O[C@@H]1C[C@@H]2[C@H](C=C3NC(=O)C=C3[C@@]2(C)O)[C@@]2(C)CCCC(C)(C)[C@H]12
IC50 (RAW264.7 [1]): 9.8 µM
Activity (RAW264.7 [2]): Non-Toxic

C[C@H]1C2=CC(=O)O[C@]2(O)C[C@H]2[C@H]1C[C@@H](O)[C@H]1C(C)(C)CCC[C@]21C
IC50 (RAW264.7 [1]): 21.5 µM
Activity (RAW264.7 [2]): Non-Toxic

CO[C@@]12C[C@H]3[C@@H](C[C@@H](O)[C@H]4C(C)(C)CCC[C@]34C)[C@@H](C)C1=CC(=O)O2
IC50 (RAW264.7 [1]): 29.2 µM
Activity (RAW264.7 [2]): Non-Toxic

C[C@H]1C2=CC(=O)OC2=C[C@H]2[C@H]1C[C@@H](O)[C@H]1[C@](C)(CO)CCC[C@]21C
IC50 (RAW264.7 [1]): 45.8 µM
Activity (RAW264.7 [2]): Non-Toxic

CC(=O)O[C@H]1CC[C@]2(C)[C@H]3C[C@H]4OC(=O)C=C4[C@H](C)[C@@H]3CC[C@H]2C1(C)C
IC50 (RAW264.7 [1]): 49.8 µM
Activity (RAW264.7 [2]): Non-Toxic

CC(=O)O[C@@H]1C[C@@H]2[C@H](C=C3NC(=O)C=C3[C@]2(C)O)[C@@]2(C)CCCC(C)(C)[C@H]12
IC50 (RAW264.7 [1]): 11.2 µM
Activity (RAW264.7 [2]): Non-Toxic

C[C@H]1C2=CC(=O)N(CCO)[C@@H]2C[C@H]2[C@H]1C[C@@H](O)[C@H]1C(C)(C)CCC[C@]21C
IC50 (RAW264.7 [1]): 16.4 µM
Activity (RAW264.7 [2]): Non-Toxic

C[C@H]1C2=CC(=O)NC2=C[C@H]2[C@H]1C[C@@H](O)[C@H]1C(C)(C)CCC[C@]21C
IC50 (RAW264.7 [1]): 8.2 µM
Activity (RAW264.7 [2]): Non-Toxic
inhibition (RAW264.7 [3]): Dose-Dependent Effect
inhibition (RAW264.7 [4]): Dose-Dependent Effect

CC(=O)O[C@@H]1CC(C)(C)[C@@H]2CC[C@H]3[C@@H](C)C4=CC(=O)O[C@@H]4C[C@@H]3[C@@]2(C)C1
IC50 (RAW264.7 [1]): > 50 µM
Activity (RAW264.7 [2]): Non-Toxic

C[C@@H]1C[C@H]2[C@@H]3CCC4=CC(=O)C=C[C@]4(C)[C@@]3(F)[C@@H](O)C[C@]2(C)[C@@]1(O)C(=O)CO [DEXAMETHASONE]
IC50 (RAW264.7 [1]): 0.58 µM
Activity (RAW264.7 [2]): Non-Toxic
